Measured values: paper PMC6911004, “Fragment-based screening identifies molecules targeting the substrate-binding ankyrin repeat domains of tankyrase” (Scientific Reports, 2019)

How the values were obtained:
TNKS2 ARC4 (488–649) = target: T1, TNKS2 ARC4 (488–649) (Homo sapiens, UniProt Q9H2K2); assay: Isothermal titration calorimetry (ITC); assay type: binding; settings: global analysis n = 5
T1 construct: The cell was filled with TNKS2 ARC4 (488–649); His6-GST (cleaved yes); made in house; host or cells: E. coli BL21-CodonPlus (DE3)-RIL
T1 sequence (Q9H2K2 488-649): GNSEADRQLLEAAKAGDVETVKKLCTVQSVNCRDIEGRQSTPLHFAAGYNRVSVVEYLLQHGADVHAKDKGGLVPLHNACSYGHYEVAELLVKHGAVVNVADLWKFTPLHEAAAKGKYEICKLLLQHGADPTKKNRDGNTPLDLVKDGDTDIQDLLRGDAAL
Description: We next used isothermal titration calorimetry (ITC) to confirm the compound 9:TNKS2 ARC4 binding affinity, titrating the fragment (5 mM, 1% DMSO) into TNKS2 ARC4 (200 μM, 1% DMSO).
An ITC200 instrument (MicroCal) was used, fitted with a twisted syringe needle, stirring at 750 rpm. All solutions were degassed using a ThermoVac before use. The reference cell was filled with buffer (200 μL, 25 mM HEPES-NaOH pH 7.5, 100 mM NaCl, 1 mM TCEP, 1% v/v DMSO). The cell was filled with TNKS2 ARC4 (488–649) (200 μL, 200 μM in identical buffer as above). 20 injections (1 × 0.5 μL, then 19 × 2 μL) of compound 9 (5 mM, 1% v/v DMSO in buffer) were performed, with 180 s between injections. Blank correction was performed by titrating compound into buffer alone (25 mM HEPES-NaOH pH 7.5, 100 mM NaCl, 1 mM TCEP, 1% v/v DMSO) using the same injection protocol as above. The first injections from each run were discarded from data analysis. Data were analysed using Origin software with a one-site binding model. Titrations were repeated n = 5. Global analysis was performed using SEDPHAT software.

TNKS2 ARC1 = target: T2, TNKS2 ARC1 (Homo sapiens, UniProt Q9H2K2); assay: Differential scanning fluorimetry (DSF); assay type: binding; settings: ARC 20 μM + 3BP2 TBM peptide 200 μM, inflection point method
T2 construct: TNKS2 ARC1 (20–178); His6-GST; made in house; host or cells: E. coli
T2 sequence (Q9H2K2 whole entry, looked up): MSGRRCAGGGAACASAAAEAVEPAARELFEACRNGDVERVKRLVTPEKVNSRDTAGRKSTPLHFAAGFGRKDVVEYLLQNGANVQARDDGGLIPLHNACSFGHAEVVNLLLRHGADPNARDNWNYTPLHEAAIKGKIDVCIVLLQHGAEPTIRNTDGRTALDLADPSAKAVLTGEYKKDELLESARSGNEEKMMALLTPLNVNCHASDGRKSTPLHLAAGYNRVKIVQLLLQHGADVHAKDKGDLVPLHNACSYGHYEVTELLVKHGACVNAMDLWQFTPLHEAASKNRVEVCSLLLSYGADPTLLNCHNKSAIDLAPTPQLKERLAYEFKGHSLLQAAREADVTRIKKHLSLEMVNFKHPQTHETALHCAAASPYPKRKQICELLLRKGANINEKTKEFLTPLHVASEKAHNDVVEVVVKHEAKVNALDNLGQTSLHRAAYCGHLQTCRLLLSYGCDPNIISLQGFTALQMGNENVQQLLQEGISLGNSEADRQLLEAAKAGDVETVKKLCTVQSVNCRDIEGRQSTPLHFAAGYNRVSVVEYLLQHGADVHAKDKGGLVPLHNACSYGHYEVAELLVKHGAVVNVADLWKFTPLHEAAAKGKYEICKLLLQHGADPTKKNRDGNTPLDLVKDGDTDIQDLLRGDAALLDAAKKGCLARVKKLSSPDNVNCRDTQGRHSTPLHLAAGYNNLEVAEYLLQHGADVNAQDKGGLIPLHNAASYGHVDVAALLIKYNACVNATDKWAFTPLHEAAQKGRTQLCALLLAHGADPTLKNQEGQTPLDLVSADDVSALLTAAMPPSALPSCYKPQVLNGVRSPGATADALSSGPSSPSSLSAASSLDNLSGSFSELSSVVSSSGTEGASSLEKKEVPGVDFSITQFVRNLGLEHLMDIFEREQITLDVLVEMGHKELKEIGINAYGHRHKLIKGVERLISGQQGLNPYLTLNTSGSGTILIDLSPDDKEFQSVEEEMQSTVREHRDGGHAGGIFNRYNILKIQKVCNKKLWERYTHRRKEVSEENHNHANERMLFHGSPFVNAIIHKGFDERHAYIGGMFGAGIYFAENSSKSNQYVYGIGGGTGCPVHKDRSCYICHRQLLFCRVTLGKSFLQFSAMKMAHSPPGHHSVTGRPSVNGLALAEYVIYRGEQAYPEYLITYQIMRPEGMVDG
Description: For the experiment shown in Fig. 2A, ARC and 3BP2 TBM peptide concentrations were 20 and 200 μM, respectively, in 50 mM HEPES-NaOH pH 7.5, 100 mM NaCl, 2 mM TCEP and a total volume of 25 μL. SYPRO Orange was added at 5×. Data were recorded from 4–95 °C, with the temperature ramped by 0.5 °C every 15 s, using a CFX384 thermal cycler (Bio-Rad). Data were analysed by non-linear regression in GraphPad Prism using a Boltzmann sigmoid with linear baselines. ΔTm values were determined using the inflection point method.

Molecule | Kd (TNKS2 ARC4 (488–649); compound 5 mM into ARC4 200 μM, 1% DMSO) | ITC stoichiometry (N) compound:TNKS2 ARC4 (TNKS2 ARC4 (488–649)) | ΔTm (TNKS2 ARC1)
O=C(NCc1ccco1)c1ccc2nccnc2c1 [compound 9] | 1.2 mM | 1.1 | 
LPHLQRSPPDGQSFRSW [3BP2 16-mer peptide, 16-mer TBM peptide derived from 3BP2, W added for A280, N-terminus acetylated, C-terminus amide-capped; positive control, reference compound] |  |  | 1.34 °C
